Laboratory results as given in publication PMC3991565 (Science (New York, N.Y.), 2014).

Key:
mGlu1 [1] = test: potency; format: cell-based; conditions: relative to FITM; ref 9 values
mGlu1 [2] = conditions: mGlu1 NAM potency of FITM and analogs used for docking; cited from earlier work
human mGlu1 receptor = human mGlu1 receptor (Homo sapiens, UniProt Q13255); test: FITM binding affinity at mGlu1
mGlu5 = mGlu5 (Homo sapiens, UniProt P41594); test: FITM selectivity for mGlu1 over mGlu5; format: cell-based; conditions: mGlu1 versus mGlu5, Fig. S12
[3] = target: wild-type (WT) full-length human mGlu1 receptor (Homo sapiens, UniProt Q13255); test: FITM-mediated antagonism of glutamate at wild-type full-length receptor; format: cell-based; conditions: WT full-length human mGlu1, versus glutamate
wild-type (WT) full-length human mGlu1 receptor, sequence (Q13255 19-1194): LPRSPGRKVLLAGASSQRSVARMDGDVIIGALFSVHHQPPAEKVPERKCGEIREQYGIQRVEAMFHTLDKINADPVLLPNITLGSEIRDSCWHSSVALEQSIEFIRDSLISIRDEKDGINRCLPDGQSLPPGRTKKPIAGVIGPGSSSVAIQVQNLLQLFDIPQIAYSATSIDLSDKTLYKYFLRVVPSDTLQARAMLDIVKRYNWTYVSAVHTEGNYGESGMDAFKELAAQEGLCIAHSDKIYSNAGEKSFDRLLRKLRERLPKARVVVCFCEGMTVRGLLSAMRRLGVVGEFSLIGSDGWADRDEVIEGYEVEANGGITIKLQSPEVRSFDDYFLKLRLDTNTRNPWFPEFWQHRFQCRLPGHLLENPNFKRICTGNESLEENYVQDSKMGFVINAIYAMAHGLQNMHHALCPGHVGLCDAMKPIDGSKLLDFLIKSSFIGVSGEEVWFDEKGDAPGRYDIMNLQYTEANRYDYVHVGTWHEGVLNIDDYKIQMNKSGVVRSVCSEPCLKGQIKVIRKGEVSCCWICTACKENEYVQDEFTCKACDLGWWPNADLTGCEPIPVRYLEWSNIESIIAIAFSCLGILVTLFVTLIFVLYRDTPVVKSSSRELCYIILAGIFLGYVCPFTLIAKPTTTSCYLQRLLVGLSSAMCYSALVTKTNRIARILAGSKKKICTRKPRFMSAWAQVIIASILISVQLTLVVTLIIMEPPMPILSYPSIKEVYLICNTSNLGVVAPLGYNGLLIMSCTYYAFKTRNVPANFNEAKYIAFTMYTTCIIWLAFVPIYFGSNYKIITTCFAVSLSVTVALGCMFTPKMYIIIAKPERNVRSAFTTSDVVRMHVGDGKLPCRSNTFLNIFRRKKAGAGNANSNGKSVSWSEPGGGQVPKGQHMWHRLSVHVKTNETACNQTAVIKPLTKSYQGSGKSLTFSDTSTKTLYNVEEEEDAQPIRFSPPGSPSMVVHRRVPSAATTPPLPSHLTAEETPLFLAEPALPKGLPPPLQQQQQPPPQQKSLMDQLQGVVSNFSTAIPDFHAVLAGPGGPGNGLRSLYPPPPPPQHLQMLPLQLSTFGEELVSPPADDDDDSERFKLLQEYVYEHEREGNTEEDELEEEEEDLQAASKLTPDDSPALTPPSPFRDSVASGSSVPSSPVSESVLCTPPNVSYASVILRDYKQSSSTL

mGlu5, sequence (P41594 21-1212): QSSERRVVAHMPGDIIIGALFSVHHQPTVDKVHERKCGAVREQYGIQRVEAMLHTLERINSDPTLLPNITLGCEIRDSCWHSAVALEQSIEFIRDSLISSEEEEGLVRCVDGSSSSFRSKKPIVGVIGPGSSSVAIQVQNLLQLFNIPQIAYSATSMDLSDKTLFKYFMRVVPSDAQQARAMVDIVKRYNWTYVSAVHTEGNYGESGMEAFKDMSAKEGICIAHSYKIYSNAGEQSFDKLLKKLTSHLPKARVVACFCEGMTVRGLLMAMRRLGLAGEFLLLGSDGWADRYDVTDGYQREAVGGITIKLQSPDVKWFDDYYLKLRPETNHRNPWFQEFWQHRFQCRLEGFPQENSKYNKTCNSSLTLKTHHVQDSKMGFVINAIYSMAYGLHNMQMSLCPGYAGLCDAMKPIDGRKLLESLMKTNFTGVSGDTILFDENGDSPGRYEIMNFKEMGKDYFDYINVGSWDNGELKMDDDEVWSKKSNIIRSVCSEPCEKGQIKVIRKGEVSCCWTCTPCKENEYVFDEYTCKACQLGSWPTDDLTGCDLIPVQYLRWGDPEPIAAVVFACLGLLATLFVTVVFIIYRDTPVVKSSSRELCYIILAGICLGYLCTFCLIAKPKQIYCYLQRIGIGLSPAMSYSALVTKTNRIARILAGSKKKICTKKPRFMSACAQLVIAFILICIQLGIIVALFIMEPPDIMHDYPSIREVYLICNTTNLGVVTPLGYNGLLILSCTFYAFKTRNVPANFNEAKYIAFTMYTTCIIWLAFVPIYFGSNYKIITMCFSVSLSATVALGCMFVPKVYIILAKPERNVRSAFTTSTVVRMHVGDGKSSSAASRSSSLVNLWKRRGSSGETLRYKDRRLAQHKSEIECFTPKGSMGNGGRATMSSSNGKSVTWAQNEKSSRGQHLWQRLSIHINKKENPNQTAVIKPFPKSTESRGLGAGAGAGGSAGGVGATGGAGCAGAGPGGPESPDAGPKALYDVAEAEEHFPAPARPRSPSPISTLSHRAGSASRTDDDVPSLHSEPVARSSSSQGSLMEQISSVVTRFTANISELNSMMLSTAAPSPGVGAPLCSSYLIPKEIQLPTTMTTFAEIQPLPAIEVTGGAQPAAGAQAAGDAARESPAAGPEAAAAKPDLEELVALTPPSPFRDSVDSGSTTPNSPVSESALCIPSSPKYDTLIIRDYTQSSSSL
human mGlu1 receptor, sequence (Q13255 581-860): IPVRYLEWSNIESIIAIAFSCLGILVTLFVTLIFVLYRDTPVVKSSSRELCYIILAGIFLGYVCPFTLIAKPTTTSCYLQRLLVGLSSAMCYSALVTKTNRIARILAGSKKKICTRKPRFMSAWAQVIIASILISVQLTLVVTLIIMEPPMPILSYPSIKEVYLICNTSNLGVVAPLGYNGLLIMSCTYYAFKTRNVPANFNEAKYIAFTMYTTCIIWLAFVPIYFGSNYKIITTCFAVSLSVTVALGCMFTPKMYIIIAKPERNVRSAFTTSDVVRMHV

Ki (human mGlu1 receptor) | subtype selectivity (mGlu5) | mode of allosteric modulation [3] | SMILES | fold lower potency than FITM (mGlu1 [1]) | IC50 (mGlu1 [2])
– | – | – | CC(C)N(C)c1cc(-c2csc(N(C)C(=O)c3ccc(F)cc3)n2)ncn1 [compound 28] | approximately 10 fold | 77 nM
2.5 nM | selectivity for mGlu1 over mGlu5 | full NAM | CC(C)Nc1cc(-c2csc(N(C)C(=O)c3ccc(F)cc3)n2)ncn1 [FITM, 4-fluoro-N-(4-(6-(isopropylamino)pyrimidin-4-yl)thiazol-2-yl)-N-methylbenzamide] | – | 5 nM
